According to US8715368B2, “Thiophene azo dyes and laundry care compositions containing the same” (The Procter & Gamble Company, priority 2010, dated 2014):

Assay: Aqueous Partition Value of a dye (water/1-octanol partitioning, absorbance at λmax)
Format: physicochemical
Settings: deionized water/1-octanol 10.0 mL each, APV=(Af/Ai)×100%
Description: Dissolve in deionized water to a final volume of 10.0 mL an amount of dye sufficient to provide a solution absorbance value between 0.25 and 1.0, said absorbance being determined at the dye λmax between 400 nm and 750 nm, using a cuvette with 1.0 cm path length. Measure the absorbance of the sample at the dye λmax in a UV/Vis spectrophotometer, then transfer the entire 10.0 mL solution to a 50.0 mL plastic centrifuge tube. Add 10.0 mL of 1-octanol, cap the tube, and mix vigorously for 30 seconds using a Vortex™ mixer. Leave the tube standing undisturbed until the layers cleanly phase separate.
Using a transfer pipette, withdraw an aliquot of the aqueous (bottom) layer and transfer it to a cuvette with 1.0 cm path length for spectrophotometric analysis. Analyze the solution as before, and quantify the absorbance loss at λmax as “% of Dye Remaining in Aqueous Layer” as detailed below: % of Dye Remaining in Aqueous Layer=Aqueous Partition Value (APV)=(Af/Ai)×100% wherein Ai is the initial solution absorbance at λmax and Af is the final solution absorbance at λmax. II. Method for Determining Hueing Efficiency for Detergents • a.) Two 25 cm×25 cm fabric swatches of 16 oz white cotton interlock knit fabric (270 g/square meter, brightened with Uvitex BNB fluorescent whitening agent, from Test Fabrics. P.O. Box 26, Weston, Pa., 18643) are obtained. • b.) Prepare two one liter aliquots of tap water containing 1.55 g of AATCC standard heavy duty liquid (HDL) test detergent. • c.) Add a sufficient amount the dye to be tested to one of the aliquots from Step b.) above to produce an aqueous solution absorbance of 1 AU. • d.) Wash one swatch from a.) above in one of the aliquots of water containing 1.55 g of AATCC standard heavy duty liquid (HDL) test detergent and wash the other swatch in the other aliquot. Such washing step should be conducted for 30 minutes at room temperature with agitation. After such washing step separately rinse the swatches in tap water and air dry the swatches in the dark. • e.) After rinsing and drying each swatch, the hueing efficiency, DE*eff, of the dye is assessed by determining the L*, a*, and b* value measurements of each swatch using a Hunter LabScan XE reflectance spectrophotometer with D65 illumination, 10° observer and UV filter excluded. The hueing efficiency of the dye is then calculated using the following equation: DE*eff=((L*c−L*s)^2+(a*c−a*s)^2+(b*c−b*s)^2)^1/2 • wherein the subscripts c and s respectively refer to the L*, a*, and b* values measured for the control, i.e., the fabric sample washed in detergent with no dye, and the fabric sample washed in detergent containing the dye to be screened. III. Method for Determining Wash Removability • a.) Prepare two separate 150 ml aliquots of HDL detergent solution, according to AATCC Test Method 61-2003, Test 2A and containing 1.55 g/liter of the AATCC HDL formula in distilled water. • b.) A 15 cm×5 cm sample of each fabric swatch from the Method for Determining of Hueing Efficiency For Detergents described above is washed in a Launderometer for 45 minutes at 49° C. in 150 ml of a the HDL detergent solution prepared according to Step 11. a.) above. • c.) The samples are rinsed with separate aliquots of rinse water and air dried in the dark, and then L*, a*, and b* value measurements of each swatch are taken using a Hunter LabScan XE reflectance spectrophotometer with D65 illumination, 10° observer and UV filter excluded. The amount of residual coloration is assessed by measuring the DE*res, calculated using the following equation: DE*res=((L*c−L*s)^2+(a*c−a*s)^2+(b*c−b*s)^2)^1/2 • wherein the subscripts c and s respectively refer to the L*, a*, and b* values measured for the control, i.e., the fabric sample initially washed in detergent with no dye, and the fabric sample initially washed in detergent containing the dye to be screened. The wash removal value for the dye is then calculated according to the formula: % removal=100×(1−DE*res/DE*eff). C. Test Results […]

| % Dye in Water Layer [%] | SMILES |
| --- | --- |
| 15 | CCN(CCOCCOCCOCCOCC[N+](CC)(CC)CC)c1ccc(/N=N/c2sc(C#N)c(C)c2C#N)c(C)c1 [Example 12] |
| 49 | CC[N+](CC)(CC)CCOCCOCCN(CCOCC[N+](CC)(CC)CC)c1cc(C)c(/N=N/c2sc(C#N)c(C)c2C#N)cc1OC [Example 18] |
| 78 | CC[N+](CC)(CC)CCOCCOCCN(CCOCC[N+](CC)(CC)CC)c1cc(OC)c(/N=N/c2sc(C#N)c(C)c2C#N)cc1OC [Example 19] |
| 75 | COc1cc(/N=N/c2sc(C#N)c(C)c2C#N)c(C)cc1N(CCOCCOCC[N+](C)(C)CCO)CCOCC[N+](C)(C)CCO [Example 21] |
| 66 | CC[N+](CC)(CC)CCOCCOCCN(CCOCC[N+](CC)(CC)CC)c1ccc(/N=N/c2sc(C#N)c(C)c2C#N)c(C)c1 [Example 35] |

Second part, the compound before the results:

| SMILES | % Dye in Water Layer [%] |
| --- | --- |
| COc1cc(/N=N/c2sc(C#N)c(C)c2C#N)c(C)cc1N(CCn1cc[n+](C)c1)CCn1cc[n+](C)c1 [Example 1] | 97 |
| Cc1cc(N(CCn2cc[n+](C)c2)CCn2cc[n+](C)c2)ccc1/N=N/c1sc(C#N)c(C)c1C#N [Example 2] | 83 |
| CCN(CC[N+](CC)(CC)CC)c1ccc(/N=N/c2sc(C#N)c(C)c2C#N)c(C)c1 [Example 7] | 15 |
| COc1cc(/N=N/c2sc(C#N)c(C)c2C#N)c(C)cc1N(CCOCCOCC[N+](CCO)(CCO)CCO)CCOCC[N+](CCO)(CCO)CCO [Example 22] | 56 |
| CC[N+](CC)(CC)CCN(CC[N+](CC)(CC)CC)c1ccc(/N=N/c2sc(C#N)c(C)c2C#N)c(C)c1 [Example 36] | 94 |
